The test system of experiment [1] is colorectal cancer cell lines COL0205 and HCT116 resistant to PD184352. Description: Growth of CI-1040 (PD184352)-resistant cancerous cells co-incubated daily with platelets (Example 2). Type of experiment: cell-based. The note with it: serum-free, platelets 30 minutes each day; for fate of cell population incubated with MEK inhibitor and PPS or DXS: in the presence of CI-1040 (PD184352). How it is done:
(§1) Three populations of cells are cultivated in the presence of the inhibitor under serum-free conditions.
(§2) For a first population of the cells PPS is added to the cell culture dishes, while for a second population, i.e. the control cells, no PPS is added.
(§3) For a third population of the cells DXS is added to the cell culture dishes.
(§4) Each day all cell populations are co-incubated with platelets for 30 minutes, which are subsequently washed away.
The second experiment is performed as described for Example 1 except that cells are cultivated in the presence of the MEK inhibitor CI-1040 (PD184352).
As described in Little et al. 2011 in detail cancerous cells that have developed a resistance against the MEK inhibitor PD184352 are generated by growing colorectal cancer cell lines harboring mutations in BRAF (COL0205) or KRAS (HCT116) in the presence of increasing concentrations of […] without clonal selection until they grow apparently normally in 1 μm, 2 μM or […].
For each of the cancerous cells lines that have developed a resistance against the MEK inhibitor CI-1040 (PD184352) the cultivation steps as in Example 1 are performed, except that the cells are cultivated in the presence of the MEK inhibitor CI-1040 (PD184352).

Experiment [2] deals with melanoma cell line A375 resistant to dabrafenib. Description: Growth of dabrafenib-resistant cancerous cells co-incubated daily with platelets (Example 6). The class given is cell-based, human. The settings on record: serum-free, platelets 30 minutes each day; for fate of cell population incubated with Raf inhibitor and PPS or DXS: in the presence of dabrafenib. On the procedure:
as §1, §2, §3, §4
The sixth experiment is performed as described for Example 1 except that cells that have developed a resistance against the Raf inhibitor dabrafenib are used and cultivated in the presence of the Raf inhibitor dabrafenib.
As described in Caparorali et al. 2011 in detail cancerous cells that have developed a resistance against the Raf inhibitor dabrafenib are generated by growing the human melanoma cell line A375 in gradually increasing concentrations of dabrafenib (from 1 nM up to 1.5 μM) over a period of 4 months and subsequently maintaining the dabrafenib-resistance cell lines in CM supplemented with 1.5 μM dabrafenib.
For each of the cancerous cells lines that have developed a resistance against the Raf inhibitor dabrafenib the cultivation steps as in Example 1 are performed, except that the cells are cultivated in the presence of the Raf inhibitor dabrafenib.

Experiment [3] relates to Hepatocellular carcinoma (HCC) Huh7 cells resistant to sorafenib. Description: Growth of sorafenib-resistant cancerous cells co-incubated daily with platelets (Example 5). The class given is cell-based, human. The settings on record: serum-free, platelets 30 minutes each day; for fate of cell population incubated with Raf inhibitor and PPS or DXS: in the presence of sorafenib. How it is done: as §1, §2, §3, §4
The fifth experiment is performed as described for Example 1 except that cells that have developed a resistance against the Raf inhibitor sorafenib are used and cultivated in the presence of the Raf inhibitor sorafenib.
As described in Chen et al. 2011 in detail cancerous cells that have developed a resistance against the Raf inhibitor sorafenib are generated by growing the human Hepatocellular carcinoma (HCC) Huh7 in a long term exposure to sorafenib.
For each of the cancerous cells lines that have developed a resistance against the Raf inhibitor sorafenib the cultivation steps as in Example 1 are performed, except that the cells are cultivated in the presence of the Raf inhibitor sorafenib.

Experiment [4] relates to colorectal cancer cell lines COL0205, HT29, HCT116 and LoVo resistant to Selumetinib. Description: Growth of Selumetinib-resistant cancerous cells co-incubated daily with platelets (Example 1). Type of experiment: cell-based. The note with it: in the presence of Selumetinib, serum-free, platelets 30 minutes each day. On the procedure: The experiment is performed on cancerous cells that have developed a resistance against the MEK inhibitor Selumetinib. As described in Little et al. 2011 in detail cancerous cells that have developed a resistance against the MEK inhibitor Selumetinib are generated by growing colorectal cancer cell lines harboring mutations in BRAF (COL0205 and HT29 lines) or KRAS (HCT116 and LoVo lines) in the presence of increasing concentrations of AZD6244 (Selumetinib) without clonal selection until they grow apparently normally in 1 μm, 2 μM or 4 μM of the drug.
For each of the cancerous cells lines that have developed a resistance against the MEK inhibitor Selumetinib the following steps are performed:
as §1, §2, §3, §4
Control cells in the growth cycle express platelet receptors on their surface. Platelets adhere to the control cells and release growth factors from their alpha granules. The control cells will take up the factors and proceed through the cell cycle, even in the presence of the MEK inhibitor.

For experiment [5], the system named is cancerous cells resistant against an RTK inhibitor. As to the kind of experiment: Growth of RTK inhibitor-resistant cancerous cells co-incubated daily with platelets (Example 7). Type of experiment: cell-based. The note with it: in the presence of the RTK inhibitor, serum-free, platelets 30 minutes each day. On the procedure:
as §1, §2, §3, §4
The seventh experiment is performed as described for Example 1, except that the cancerous cells are resistant against an RTK inhibitor and the three populations of cells are cultivated in the presence of the RTK inhibitor.

Experiment [6] relates to NRAS mutant melanoma cell lines DO4 and MM415 resistant to trametinib. As to the kind of experiment: Growth of trametinib-resistant cancerous cells co-incubated daily with platelets (Example 3). Type of experiment: cell-based, Human. The settings on record: in the presence of trametinib, serum-free, platelets 30 minutes each day. On the procedure:
as §1, §2, §3, §4
The third experiment is performed as described for Example 1 except that cells that have developed a resistance against the MEK inhibitor trametinib (GSK1120212) are used and cultivated in the presence of the MEK inhibitor trametinib.
As described in Vujic et al. 2014 in detail cancerous cells that have developed a resistance against the MEK inhibitor trametinib are generated by growing Human NRAS mutant melanoma cell lines DO4 and MM415 in the presence of increased concentrations of trametinib (GSK1120212) over a period of approximately 6 months.
For each of the cancerous cell lines that have developed a resistance against the MEK inhibitor trametinib the cultivation steps as in Example 1 are performed, except that the cells are cultivated in the presence of the MEK inhibitor trametinib.

The test system of experiment [7] is melanoma cell line SK-MEL-28 (BRAF V600E) resistant to vemurafenib. Description: Growth of vemurafenib-resistant cancerous cells co-incubated daily with platelets (Example 4). The note with it: in the presence of vemurafenib, serum-free, platelets 30 minutes each day. Type of experiment: cell-based. On the procedure: as §1, §2, §3, §4
For experiment [8] the following is noted: fraction of Heparin's activity; cited from earlier work.

As to `O=C(NOCC1CC1)c1ccc(F)c(F)c1Nc1ccc(I)cc1Cl` [CI-1040], the “growth of control cells with MEK inhibitor alone (no PPS/DXS)” value in experiment [1] (CI-1040 (PD184352) alone) was “continue to grow and divide”.

In the case of `CC(C)(C)c1nc(-c2cccc(NS(=O)(=O)c3c(F)cccc3F)c2F)c(-c2ccnc(N)n2)s1` [dabrafenib], the “growth of control cells with Raf inhibitor alone (no PPS/DXS)” value in experiment [2] (dabrafenib alone) was “continue to grow and divide”.

In the case of `CNC(=O)c1cc(Oc2ccc(NC(=O)Nc3ccc(Cl)c(C(F)(F)F)c3)cc2)ccn1` [sorafenib], the “growth of control cells with Raf inhibitor alone (no PPS/DXS)” value in experiment [3] (sorafenib alone) is “continue to grow and divide”.

In the case of Dextran sulfate [DXS], the “fate of cell population incubated with Raf inhibitor and PPS or DXS” value in experiment [3], in experiment [2] and in experiment [7] was “perish” throughout. The “fate of cell population incubated with MEK inhibitor and PPS or DXS” value in experiment [1], in experiment [4] and in experiment [6] was “perish” in each case. The “adherence of platelets to the cancerous cells” value in experiment [4] is “prevents the platelet from adhering to the cancerous cells”. The “fate of cell population incubated with RTK inhibitor and PPS or DXS” value in experiment [5] is listed as “perish”.

For Pentosan polysulfate [PPS], the “fate of cell population incubated with Raf inhibitor and PPS or DXS” value in experiment [3], in experiment [2] and in experiment [7] was “perish” throughout. Besides, the “fate of cell population incubated with MEK inhibitor and PPS or DXS” value in experiment [1], in experiment [4] and in experiment [6] was “perish” throughout. Besides, the “adherence of platelets to the cancerous cells” value in experiment [4] is “prevents the platelet from adhering to the cancerous cells”. For the same compound, the “anticoagulant activity relative to that of Heparin” value in experiment [8] is given as 1/15. For the same compound, the “fate of cell population incubated with RTK inhibitor and PPS or DXS” value in experiment [5] is recorded as “perish”.

(Values after patent US11559544B2, “Combination of a MAPK/ERK pathway inhibitor and a glycosaminoglycan for the treatment of cancer” (CELL RECEPTOR AG, priority 2017, dated 2023).)
